# From US3932646A, “Pharmaceutical compositions containing unsymmetrical esters of 1,4-dihydropyridine 3,5-dicarboxylate” (Farbenfabriken Bayer AG, priority 1971, dated 1976)
# Key:
# Format in all cases: in vivo
# [1] = Toxicity (Mouse), conventional LD50 determination p.o.; details: in vivo, po
# Text: (§1) The pharmacological properties of these compounds are conveniently observed in well-known animal models which parallel the desired clinical response. Similarly toxicity is low, as measured for example in the conventional LD50 determination.
# hypertensive rat = test: Blood pressure effect on hypertensive rat p.o.; details: given as "from" dose; for minimal effective dose: po, read-out: Blood pressure effect on hypertensive rat (dose from which the effect is seen)
# Text: as §1
# coronary vessels = test: Dosage at which a coronary effect is observed, i.v.; details: for minimal effective dose: iv
# Mouse = test: Toxicity (Mouse), conventional LD50 determination p.o.
# Text: as §1
SMILES,LD50 [1] [mg/kg],minimal effective dose (hypertensive rat) [mg/kg],minimal effective dose (coronary vessels) [mg/kg],Toxicity (Mouse) LD50 (Mouse) [mg/kg],Dose at which a coronary effect is observed (coronary vessels) [mg/kg],Blood pressure effect on hypertensive rat (dose from which the effect is seen) (hypertensive rat) [mg/kg]
"C=CCOC(=O)C1=C(C)NC(C)=C(C(=O)OCC)C1c1ccccc1C (stereo not shown) [Example 1, 2,6-dimethyl-4-(2'-methylphenyl)-1,4-dihydropyridine-3,5-dicarboxylic acid 3-ethyl ester-5-allyl ester]",> 3000,≥ 10,0.05,–,–,–
"C#CCOC(=O)C1=C(C)NC(C)=C(C(=O)OCC)C1c1ccccc1C (stereo not shown) [Example 2, 2,6-dimethyl-4-(2'-methylphenyl)-1,4-dihydropyridine-3,5-dicarboxylic acid 3-ethyl ester-5-propargyl ester]",800,≥ 10,0.01,–,–,–
"C=CCOC(=O)C1=C(C)NC(C)=C(C(=O)OC)C1c1ccccc1F (stereo not shown) [Example 3, 2,6-dimethyl-4-(2'-fluorophenyl)-1,4-dihydropyridine-3,5-dicarboxylic acid 3-methyl ester-5-allyl ester]",800,≥ 3.1,0.01,–,–,–
"C#CCOC(=O)C1=C(C)NC(C)=C(C(=O)OCC)C1c1ccccc1C(F)(F)F (stereo not shown) [Example 4, 2,6-dimethyl-4-(2'-trifluoromethylphenyl)-1,4-dihydropyridine-3,5-dicarboxylic acid 3-ethyl ester-5-propargyl ester]",–,≥ 1,–,200,0.005,–
"C=CCOC(=O)C1=C(C)NC(C)=C(C(=O)OCC)C1c1ccccc1C(F)(F)F (stereo not shown) [Example 5, 2,6-dimethyl-4-(2'-trifluoromethylphenyl)-1,4-dihydropyridine-3,5-dicarboxylic acid 3-ethyl ester-5-allyl ester]",630,≥ 3.1,0.001,–,–,–
"C#CCOC(=O)C1=C(C)NC(C)=C(C(=O)OC)C1c1ccccc1C(F)(F)F (stereo not shown) [Example 6, 2,6-dimethyl-4-(2'-trifluoromethylphenyl)-1,4-dihydropyridine-3,5-dicarboxylic acid 3-methyl ester-5-propargyl ester]",200,≥ 0.3,0.005,–,–,–
"CCCOCCOC(=O)C1=C(C)NC(C)=C(C(=O)OCC)C1c1ccccc1OC (stereo not drawn) [Example 7, 2,6-dimethyl-4-(2'-methoxyphenyl)-1,4-dihydropyridine-3,5-dicarboxylic acid 3-ethyl ester-5-β-propoxyethyl ester]",> 3000,≥ 31.5,0.05,–,–,–
"C=CCOC(=O)C1=C(C)NC(C)=C(C(=O)OCC)C1c1ccccc1Cl (stereo not shown) [Example 8, 2,6-dimethyl-4-(2'-chlorophenyl)-1,4-dihydropyridine-3,5-dicarboxylic acid 3-ethyl ester-5-allyl ester]",630,≥ 1,0.01,–,–,–
"C=CCOC(=O)C1=C(C)NC(C)=C(C(=O)OCC)C1c1ccc(OC)c(OC)c1OC (stereo not shown) [Example 9, 2,6-dimethyl-4-(2', 3', 4'-trimethoxyphenyl)-1,4-dihydropyridine-3,5-dicarboxylic acid 3-ethyl ester-5-allyl ester]",3000,–,–,–,–,–
"C=CCOC(=O)C1=C(C)NC(C)=C(C(=O)OC)C1c1cc(Br)c(OC)c(OC)c1 (stereo not shown) [Example 10, 2,6-dimethyl-4-(3', 4'-dimethoxy-5-bromophenyl)-1,4-dihydropyridine-3,5-dicarboxylic acid 3-methyl ester-5-allyl ester]",> 3000,–,5,–,–,–
"C#CCOC(=O)C1=C(C)NC(C)=C(C(=O)OC)C1c1ccccc1OC (stereo not shown) [Example 11, 2,6-dimethyl-4-(2'-methoxyphenyl)-1,4-dihydropyridine-3,5-dicarboxylic acid 3-propargyl ester 5-methyl ester]",> 3000,≥ 10,0.05,–,–,–
"C#CCOC(=O)C1=C(C)NC(C)=C(C(=O)OC)C1c1ccccc1C(F)(F)F (stereo not shown) [Example 12, 2,6-dimethyl-4-(2'-trifluoromethylphenyl)-1,4-dihydropyridine 3,5-dicarboxylic acid 3-propargyl ester 5-methyl ester]",–,–,–,100,0.003,≥ 0.3
"C#CCOC(=O)C1=C(C)NC(C)=C(C(=O)OCC)C1c1ccccc1C(F)(F)F (stereo not shown) [Example 13, 2,6-dimethyl-4-(2'-trifluoromethylphenyl)-1,4-dihydropyridine-3,5-dicarboxylic acid 3-propargyl ester 5-ethyl ester]",–,–,–,2000,0.05,≥ 1.0
"CCOC(=O)C1=C(C)NC(C)=C(C(=O)OCCOC)C1c1ccccc1Cl (stereo not drawn) [Example 14, 2,6-dimethyl-4-(2'-chlorophenyl)-1,4-dihydropyridine 3,5-dicarboxylic acid 3-β-methoxyethyl ester 5-ethyl ester]",1000,≥ 3.1,0.01,–,–,–
"C=CCOC(=O)C1=C(C)NC(C)=C(C(=O)OC(C)C)C1c1cccc(C(F)(F)F)c1 (stereo not shown) [Example 15, 2,6-dimethyl-4-(3'-trifluoromethylphenyl)-1,4-dihydropyridine-3,5-dicarboxylic acid 3-isopropyl ester 5-allyl ester]",> 3000,≥ 3.1,0.05,–,–,–
"C#CCOC(=O)C1=C(C)NC(C)=C(C(=O)OC)C1c1ccccc1F (stereo not shown) [Example 16, 2,6-dimethyl-4-(2'-fluorophenyl)-1,4-dihydropyridine-3,5-dicarboxylic acid 3-propargyl ester 5-methyl ester]",200,≥ 10,0.05,–,–,–
"C=CCOC(=O)C1=C(C)NC(C)=C(C(=O)OCC)C1c1cccc(Cl)c1 (stereo not shown) [Example 17, 2,6-dimethyl-4-(3'-chlorophenyl)-1,4-dihydropyridine-3,5-dicarboxylic acid 3-allyl ester 5-ethyl ester]",> 3000,≥ 10,0.01,–,–,–
"C#CCOC(=O)C1=C(C)NC(C)=C(C(=O)OCC)C1c1ccccc1OC (stereo not shown) [Example 18, 2,6-dimethyl-4-(2'-methoxyphenyl)-1,4-dihydropyridine-3,5-dicarboxylic acid 3-propargyl ester 5-ethyl ester]",3000,≥ 10,0.05,–,–,–
"C#CCOC(=O)C1=C(C)NC(C)=C(C(=O)OCC)C1c1ccc(C(=O)OCC)cc1 (stereo not shown) [Example 19, 2,6-dimethyl-4-(4'-carboxyethylphenyl)-1,4-dihydropyridine-3,5-dicarboxylic acid 3-propargyl ester 5-ethyl ester]",3000,–,–,–,–,–
